Source: patent publication US20200199528A1, “CELL CULTURE MEDIA FOR DIFFERENTIATION OF STEM CELLS INTO HEPATOCYTES” (KATHOLIEKE UNIVERSITEIT LEUVEN, priority 2017, published 2020)

Tests used:
HepG2 cells = system: HepG2 cells
Experimental: PSC, HC3X and HC6X cells were differentiated in a 384 well format. Cells were treated with 14 different concentrations of compounds in 6 repeats. As a negative control 41 wells were left untreated. After 24 h of exposure media was aspirated and fresh media was added to the cells supplemented with […] of DRAQ 7 (Abcam; ab109202) and Hoechst dye (1/1000, Sigma, 33258) for 25 min at 37°. Cells were fixed with 4% paraformaldehyde. Imaging was done using an Operetta High-Content Imaging System (Perkin Elmer) and image analysis was performed using Harmony software (Perkin Elmer). Relative cell number was calculated as the percentage of living cells (draq7 positive amount subtracted from the Hoechst positive amount) relative to the average of living cells in the control wells. As a positive control, 2 donors of PHHs were seeded at 10 000 cells per well. Drugs were administrated after 8 hours of attachment. HepG2 cells were seeded at 40 000 cells per well. For control conditions HepG2 cells were exposed after 2 days of culture.

Experimental for HC6X cells: We cultured HC6X cells (both in an H9 background and in an) BJ1-iPSc background in 384 well format in AAGLY-supplemented medium.
PSC, HC3X and HC6X cells were differentiated in a 384 well format. Cells were treated with 14 different concentrations of compounds in 6 repeats. As a negative control 41 wells were left untreated. After 24 h of exposure media was aspirated and fresh media was added to the cells supplemented with 0.3 mM of DRAQ 7 (Abcam; ab109202) and Hoechst dye (1/1000, Sigma, 33258) for 25 min at 37°. Cells were fixed with 4% paraformaldehyde. Imaging was done using an Operetta High-Content Imaging System (Perkin Elmer) and image analysis was performed using Harmony software (Perkin Elmer). Relative cell number was calculated as the percentage of living cells (draq7 positive amount subtracted from the Hoechst positive amount) relative to the average of living cells in the control wells. As a positive control, 2 donors of PHHs were seeded at 10 000 cells per well. Drugs were administrated after 8 hours of attachment. HepG2 cells were seeded at 40 000 cells per well. For control conditions HepG2 cells were exposed after 2 days of culture. For AAGLY conditions HepG2 cells were maintained in the supplemented medium for 30 days before exposure.

## CC(=O)Nc1ccc(O)cc1 [APAP, acetaminophen]
HepG2 cells
  Toxicity: not able to pick up toxicity
HC6X cells
  Toxicity: no toxicity
